Experimental findings from ChEMBL document CHEMBL1145498, “A systematic interaction map of validated kinase inhibitors with Ser/Thr kinases” (Proc Natl Acad Sci U S A, 2007) are described below.

For assay [1], the target named is Calcium/calmodulin-dependent protein kinase type 1D (Homo sapiens) (UniProt Q8IU85).
The target in assay [2] is Calcium/calmodulin-dependent protein kinase type II subunit gamma (Homo sapiens) (UniProt Q13555).
Assay [3] addresses T1, Calcium/calmodulin-dependent protein kinase type IV (Homo sapiens) (UniProt Q16566).
T1 sequence (whole entry): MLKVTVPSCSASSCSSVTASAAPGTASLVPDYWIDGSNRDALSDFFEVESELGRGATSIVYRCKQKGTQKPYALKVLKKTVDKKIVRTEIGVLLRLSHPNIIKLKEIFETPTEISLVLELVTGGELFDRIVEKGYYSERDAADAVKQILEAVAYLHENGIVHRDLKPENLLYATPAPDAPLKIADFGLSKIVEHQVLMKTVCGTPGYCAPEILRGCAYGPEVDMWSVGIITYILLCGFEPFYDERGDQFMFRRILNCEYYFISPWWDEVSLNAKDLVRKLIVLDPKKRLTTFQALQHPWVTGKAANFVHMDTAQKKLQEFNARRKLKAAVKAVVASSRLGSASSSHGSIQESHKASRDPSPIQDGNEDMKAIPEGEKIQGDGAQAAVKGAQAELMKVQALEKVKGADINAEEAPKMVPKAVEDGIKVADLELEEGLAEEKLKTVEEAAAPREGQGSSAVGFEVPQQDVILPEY

Assay [4] deals with Cyclin-dependent kinase 2 (Homo sapiens, UniProt P24941).
The target of assay [5] is Serine/threonine-protein kinase Chk2 (Homo sapiens, UniProt O96017).
Assay [6] addresses Dual specificity mitogen-activated protein kinase kinase 2 (Homo sapiens, UniProt P36507).
For assay [7], the target named is Mitogen-activated protein kinase 11 (Homo sapiens, UniProt Q15759).
Chain of Mitogen-activated protein kinase 11 (Q15759 whole entry): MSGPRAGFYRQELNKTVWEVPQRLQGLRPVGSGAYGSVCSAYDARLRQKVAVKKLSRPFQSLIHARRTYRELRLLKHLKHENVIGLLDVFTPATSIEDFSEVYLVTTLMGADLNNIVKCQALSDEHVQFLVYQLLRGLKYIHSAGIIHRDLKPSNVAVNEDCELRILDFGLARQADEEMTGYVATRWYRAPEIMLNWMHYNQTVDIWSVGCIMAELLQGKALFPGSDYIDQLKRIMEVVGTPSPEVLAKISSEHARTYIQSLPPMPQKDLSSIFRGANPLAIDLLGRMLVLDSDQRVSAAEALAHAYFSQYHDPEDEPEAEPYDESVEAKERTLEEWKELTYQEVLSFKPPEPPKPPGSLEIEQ
For assay [8], the target named is Mitogen-activated protein kinase 3 (Homo sapiens, UniProt P27361).
Assay [9] has as its target T2, Serine/threonine-protein kinase Nek2 (Homo sapiens) (UniProt P51955).
T2 sequence (whole entry): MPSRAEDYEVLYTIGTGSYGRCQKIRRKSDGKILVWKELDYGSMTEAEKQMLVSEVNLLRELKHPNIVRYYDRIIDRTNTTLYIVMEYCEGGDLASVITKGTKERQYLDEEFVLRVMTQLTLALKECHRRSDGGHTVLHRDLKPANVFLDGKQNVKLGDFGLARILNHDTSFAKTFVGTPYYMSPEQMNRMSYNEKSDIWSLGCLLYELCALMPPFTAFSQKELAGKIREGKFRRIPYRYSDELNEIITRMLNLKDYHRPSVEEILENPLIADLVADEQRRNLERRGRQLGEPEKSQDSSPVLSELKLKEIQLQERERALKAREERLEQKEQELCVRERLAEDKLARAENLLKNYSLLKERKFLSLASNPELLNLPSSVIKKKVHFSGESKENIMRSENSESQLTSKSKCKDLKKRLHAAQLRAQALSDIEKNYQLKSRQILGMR

Assay [10] concerns the target Serine/threonine-protein kinase PAK 6 (Homo sapiens) (UniProt Q9NQU5).
The target in assay [11] is Serine/threonine-protein kinase pim-1 (Homo sapiens) (UniProt P11309).
In assay [12] the target is Serine/threonine-protein kinase pim-2 (Homo sapiens, UniProt Q9P1W9).
For assay [13], the target named is Serine/threonine-protein kinase RIO2 (Homo sapiens) (UniProt Q9BVS4).
Chain of Serine/threonine-protein kinase RIO2 (Homo sapiens) (Q9BVS4 whole entry, looked up): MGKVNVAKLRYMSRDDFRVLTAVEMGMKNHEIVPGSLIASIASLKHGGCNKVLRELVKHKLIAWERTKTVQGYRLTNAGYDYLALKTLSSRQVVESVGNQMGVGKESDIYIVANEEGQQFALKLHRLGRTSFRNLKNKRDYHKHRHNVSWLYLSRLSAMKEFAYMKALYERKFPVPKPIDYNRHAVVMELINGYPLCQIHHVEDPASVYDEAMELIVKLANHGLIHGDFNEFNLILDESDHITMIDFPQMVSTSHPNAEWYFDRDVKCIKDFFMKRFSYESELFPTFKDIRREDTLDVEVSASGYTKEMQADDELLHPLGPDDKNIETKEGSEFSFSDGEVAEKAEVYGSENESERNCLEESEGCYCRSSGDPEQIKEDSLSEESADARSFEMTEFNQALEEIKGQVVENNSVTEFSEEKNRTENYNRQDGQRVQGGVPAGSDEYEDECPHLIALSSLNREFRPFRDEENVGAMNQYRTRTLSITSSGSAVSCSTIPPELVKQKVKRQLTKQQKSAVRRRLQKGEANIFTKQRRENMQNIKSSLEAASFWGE
Assay [14] has as its target STE20-like serine/threonine-protein kinase (Homo sapiens) (UniProt Q9H2G2).
Assay [15] has as its target Serine/threonine-protein kinase 10 (Homo sapiens) (UniProt O94804).
Assay [16] concerns the target Serine/threonine-protein kinase 38 (Homo sapiens) (UniProt Q15208).
Assay [17] has as its target Serine/threonine-protein kinase 26 (Homo sapiens) (UniProt Q9P289).
For assay [18], the target named is T3, Serine/threonine-protein kinase 4 (Homo sapiens) (UniProt Q13043).
T3 sequence (whole entry): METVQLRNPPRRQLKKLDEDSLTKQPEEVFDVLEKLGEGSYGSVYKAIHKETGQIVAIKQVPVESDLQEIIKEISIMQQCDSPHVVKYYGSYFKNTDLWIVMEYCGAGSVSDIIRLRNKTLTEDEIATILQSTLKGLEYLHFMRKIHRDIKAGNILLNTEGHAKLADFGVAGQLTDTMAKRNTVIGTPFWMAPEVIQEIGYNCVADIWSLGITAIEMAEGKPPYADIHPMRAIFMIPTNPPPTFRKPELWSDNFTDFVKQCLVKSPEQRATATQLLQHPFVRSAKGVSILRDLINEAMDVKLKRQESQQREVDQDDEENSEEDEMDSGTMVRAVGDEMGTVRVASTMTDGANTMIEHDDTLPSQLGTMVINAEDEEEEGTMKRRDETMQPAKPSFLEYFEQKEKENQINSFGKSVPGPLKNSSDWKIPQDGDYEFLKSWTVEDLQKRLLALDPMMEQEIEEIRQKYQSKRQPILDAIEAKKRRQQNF

The target of assay [19] is TRAF2 and NCK-interacting protein kinase (Homo sapiens) (UniProt Q9UKE5).
Chain of TRAF2 and NCK-interacting protein kinase (Homo sapiens) (Q9UKE5 whole entry, looked up): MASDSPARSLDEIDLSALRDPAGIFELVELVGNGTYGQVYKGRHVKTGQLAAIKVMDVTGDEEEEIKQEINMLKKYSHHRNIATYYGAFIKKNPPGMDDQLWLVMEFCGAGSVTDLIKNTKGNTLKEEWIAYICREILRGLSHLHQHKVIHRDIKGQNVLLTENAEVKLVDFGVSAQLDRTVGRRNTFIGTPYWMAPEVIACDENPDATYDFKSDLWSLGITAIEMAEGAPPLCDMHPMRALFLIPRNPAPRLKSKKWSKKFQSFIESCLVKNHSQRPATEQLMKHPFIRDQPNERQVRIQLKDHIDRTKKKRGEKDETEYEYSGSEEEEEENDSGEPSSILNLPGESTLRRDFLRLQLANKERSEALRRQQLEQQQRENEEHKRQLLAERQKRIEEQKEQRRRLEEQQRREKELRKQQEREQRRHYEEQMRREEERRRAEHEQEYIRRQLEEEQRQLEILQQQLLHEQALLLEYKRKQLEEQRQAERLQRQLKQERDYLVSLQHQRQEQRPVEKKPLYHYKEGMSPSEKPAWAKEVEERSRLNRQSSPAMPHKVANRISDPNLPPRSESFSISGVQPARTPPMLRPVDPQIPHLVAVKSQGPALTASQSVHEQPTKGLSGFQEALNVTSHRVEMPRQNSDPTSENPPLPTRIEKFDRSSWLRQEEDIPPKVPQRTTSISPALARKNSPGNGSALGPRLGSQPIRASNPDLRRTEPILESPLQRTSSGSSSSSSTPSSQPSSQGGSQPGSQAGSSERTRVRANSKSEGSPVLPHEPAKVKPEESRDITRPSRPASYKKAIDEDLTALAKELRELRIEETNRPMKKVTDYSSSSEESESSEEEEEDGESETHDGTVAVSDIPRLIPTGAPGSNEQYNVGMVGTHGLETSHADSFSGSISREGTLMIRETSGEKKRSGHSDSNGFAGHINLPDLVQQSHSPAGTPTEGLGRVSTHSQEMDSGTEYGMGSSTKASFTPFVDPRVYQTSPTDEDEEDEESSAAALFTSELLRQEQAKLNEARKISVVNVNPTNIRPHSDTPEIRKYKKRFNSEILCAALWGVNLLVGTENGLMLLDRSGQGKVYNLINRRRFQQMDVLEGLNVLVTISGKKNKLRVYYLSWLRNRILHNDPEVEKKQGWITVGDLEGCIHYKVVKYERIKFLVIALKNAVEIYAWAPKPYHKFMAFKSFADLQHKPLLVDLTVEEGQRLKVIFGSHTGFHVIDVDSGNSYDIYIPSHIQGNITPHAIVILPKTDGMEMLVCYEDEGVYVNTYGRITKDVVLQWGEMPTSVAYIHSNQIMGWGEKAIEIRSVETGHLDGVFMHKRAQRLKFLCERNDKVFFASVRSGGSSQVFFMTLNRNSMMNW

Chain of Serine/threonine-protein kinase 38 (Homo sapiens) (Q15208 2-465 limits assumed): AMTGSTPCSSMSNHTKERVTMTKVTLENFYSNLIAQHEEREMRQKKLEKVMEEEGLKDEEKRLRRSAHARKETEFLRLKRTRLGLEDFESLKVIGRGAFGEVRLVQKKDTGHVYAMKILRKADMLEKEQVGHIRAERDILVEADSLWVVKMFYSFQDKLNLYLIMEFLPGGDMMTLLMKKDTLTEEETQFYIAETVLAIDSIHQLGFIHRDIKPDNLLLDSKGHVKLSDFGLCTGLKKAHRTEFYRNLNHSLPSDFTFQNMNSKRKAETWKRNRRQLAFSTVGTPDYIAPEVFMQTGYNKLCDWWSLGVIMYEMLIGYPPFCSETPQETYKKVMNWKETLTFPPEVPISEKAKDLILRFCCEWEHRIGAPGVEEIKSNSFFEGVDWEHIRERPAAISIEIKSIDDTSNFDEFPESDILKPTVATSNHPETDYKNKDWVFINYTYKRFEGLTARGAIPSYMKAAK
Chain of Serine/threonine-protein kinase PAK 6 (Homo sapiens) (Q9NQU5 whole entry, looked up): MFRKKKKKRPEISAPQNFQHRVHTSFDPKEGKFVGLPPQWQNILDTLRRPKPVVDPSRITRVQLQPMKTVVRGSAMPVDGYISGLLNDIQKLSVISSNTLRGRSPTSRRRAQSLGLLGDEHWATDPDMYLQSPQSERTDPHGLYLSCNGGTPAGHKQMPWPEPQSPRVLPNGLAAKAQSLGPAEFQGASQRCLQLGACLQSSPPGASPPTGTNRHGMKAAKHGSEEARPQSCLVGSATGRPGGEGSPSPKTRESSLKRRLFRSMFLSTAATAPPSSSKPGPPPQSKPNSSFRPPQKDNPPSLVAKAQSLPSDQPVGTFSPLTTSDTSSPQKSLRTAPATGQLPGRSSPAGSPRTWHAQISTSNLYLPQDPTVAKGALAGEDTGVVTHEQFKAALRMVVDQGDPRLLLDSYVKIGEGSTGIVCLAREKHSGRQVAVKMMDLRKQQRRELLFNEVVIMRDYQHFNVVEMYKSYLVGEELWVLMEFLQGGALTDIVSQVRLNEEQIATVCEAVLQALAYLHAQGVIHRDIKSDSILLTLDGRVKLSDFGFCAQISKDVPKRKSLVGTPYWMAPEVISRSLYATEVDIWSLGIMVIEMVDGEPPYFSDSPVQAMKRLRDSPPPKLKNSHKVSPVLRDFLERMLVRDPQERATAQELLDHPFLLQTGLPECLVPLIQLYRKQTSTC
Chain of Dual specificity mitogen-activated protein kinase kinase 2 (P36507 whole entry): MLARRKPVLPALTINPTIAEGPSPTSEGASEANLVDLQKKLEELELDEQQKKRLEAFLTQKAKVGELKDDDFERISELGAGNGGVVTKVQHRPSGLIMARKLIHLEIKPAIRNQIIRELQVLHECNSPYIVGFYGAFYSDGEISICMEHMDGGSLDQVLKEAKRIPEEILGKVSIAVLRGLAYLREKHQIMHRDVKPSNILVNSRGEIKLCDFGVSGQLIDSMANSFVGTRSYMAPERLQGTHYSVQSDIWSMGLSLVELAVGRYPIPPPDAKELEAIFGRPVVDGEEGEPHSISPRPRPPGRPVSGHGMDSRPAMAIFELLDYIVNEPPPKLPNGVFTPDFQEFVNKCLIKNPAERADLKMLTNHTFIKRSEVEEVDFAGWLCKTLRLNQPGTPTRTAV
Chain of Calcium/calmodulin-dependent protein kinase type II subunit gamma (Homo sapiens) (Q13555 whole entry): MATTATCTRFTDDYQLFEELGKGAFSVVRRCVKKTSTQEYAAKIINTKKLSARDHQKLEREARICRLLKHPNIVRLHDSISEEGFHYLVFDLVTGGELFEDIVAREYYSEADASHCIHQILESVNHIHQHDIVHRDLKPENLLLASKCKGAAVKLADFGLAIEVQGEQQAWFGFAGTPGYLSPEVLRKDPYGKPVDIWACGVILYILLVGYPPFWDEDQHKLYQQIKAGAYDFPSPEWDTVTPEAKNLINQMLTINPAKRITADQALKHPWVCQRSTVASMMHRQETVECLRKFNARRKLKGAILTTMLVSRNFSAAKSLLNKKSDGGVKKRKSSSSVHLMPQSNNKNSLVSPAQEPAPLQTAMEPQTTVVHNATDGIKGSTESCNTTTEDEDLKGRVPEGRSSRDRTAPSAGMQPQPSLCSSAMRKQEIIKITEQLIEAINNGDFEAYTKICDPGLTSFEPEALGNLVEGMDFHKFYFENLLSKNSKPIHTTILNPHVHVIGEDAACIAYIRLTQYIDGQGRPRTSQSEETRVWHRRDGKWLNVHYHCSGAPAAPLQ
Chain of Serine/threonine-protein kinase 26 (Homo sapiens) (Q9P289 2-416 limits assumed): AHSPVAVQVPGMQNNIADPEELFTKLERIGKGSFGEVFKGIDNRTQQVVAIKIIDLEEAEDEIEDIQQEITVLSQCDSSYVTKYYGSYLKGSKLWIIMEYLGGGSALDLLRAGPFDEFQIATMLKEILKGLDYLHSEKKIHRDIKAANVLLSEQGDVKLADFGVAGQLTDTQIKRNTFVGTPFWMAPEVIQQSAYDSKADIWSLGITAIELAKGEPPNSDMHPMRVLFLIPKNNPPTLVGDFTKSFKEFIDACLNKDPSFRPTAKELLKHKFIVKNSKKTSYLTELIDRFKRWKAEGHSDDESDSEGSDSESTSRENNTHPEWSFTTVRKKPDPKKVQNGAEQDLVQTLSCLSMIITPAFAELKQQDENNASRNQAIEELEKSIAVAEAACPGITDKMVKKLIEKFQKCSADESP

As to `CCCCc1c(-c2ccc(O)cc2)[nH]c2nccnc12` [ALOISINE A], the ΔTm (commonly the change in melting temperature against a reference sample) stood at 1.2 °C in assay [1]; 1.1 °C in assay [2]; 0.4 °C in [3]; 4.7 °C in [4]; 5.7 °C in [5]; 2.1 °C in assay [6]. Moreover, the shift in melting temperature (ΔTm) in [7] is 1 °C; in assay [8], 0.5 °C; in [9], -0.4 °C; in assay [10] it was 0.5 °C; in [11], 1.7 °C; in [12] it was 4.5 °C. Also, the ΔTm in [13] is -1.8 °C; in [14] it was 6.8 °C; in [15], 5 °C; in assay [16], 4 °C; in assay [17], 4.1 °C; in [18], -0.2 °C. Further, the ΔTm in assay [19] was found to be 0 °C.

Take `Cc1nc(N)sc1-c1ccnc(Nc2cccc([N+](=O)[O-])c2)n1`: the ΔTm was determined as 2.5 °C in assay [1]; 1 °C in assay [2]; 1.8 °C in assay [3]; 9.7 °C in assay [5]; 2.7 °C in assay [6]; 1.2 °C in [7]. Moreover, the ΔTm in [8] is 2.7 °C; in assay [9], 2.2 °C; in [10], -1.1 °C; in assay [11] it was 1.1 °C; in assay [12] it was 8.1 °C; in assay [13], 3.6 °C. Further, the ΔTm in [14] stood at 10 °C; in assay [15] it was 1.5 °C; in assay [16], 0.6 °C; in assay [17], 0.4 °C; in assay [18], 3 °C; in [19], 0.9 °C.

As for `CCCNC(=O)Nc1ccc(Oc2ncnc3cc(OC)c(OC)cc23)cc1Cl` [KRN-633], the ΔTm in assay [1] was 0.5 °C; in [2], 0.3 °C; in assay [3] it was 0.9 °C; in assay [4], -0.4 °C; in assay [5], 2.4 °C; in [6], 0.2 °C. Further, the ΔTm in assay [7] was -0.3 °C; in [8] it was 0.5 °C; in assay [9], -0.3 °C; in [10], 0.8 °C; in assay [11], 0.5 °C; in [12], 0.2 °C. In addition, the ΔTm is 0.2 °C in assay [13]; 0.5 °C in [14]; 0.4 °C in [15]; 1.6 °C in [16]; -0.1 °C in [17]; 0.5 °C in assay [18]. In addition, the ΔTm in [19] was found to be 0.2 °C.

As to `O=C(Nc1cccc(Nc2nccc(Nc3cccc(C(F)(F)F)c3)n2)c1)C1CC1` [ANILINOPYRIMIDINE1], the ΔTm in assay [1] was found to be 2.8 °C; in assay [2], 0.2 °C; in assay [3], 0.7 °C; in [4], 0 °C; in assay [5], 3.8 °C; in assay [6] it was 0.8 °C. For the same compound, the ΔTm in assay [7] is 0.8 °C; in assay [8] it was 0.9 °C; in assay [9] it was 1.3 °C; in [10], -0.9 °C; in assay [11] it was 7.3 °C; in assay [12], 6.9 °C. The ΔTm in assay [13] amounted to 3.7 °C; in [14], 4.1 °C; in assay [15], 1 °C; in [16], 0.4 °C; in assay [17] it was 0.7 °C; in [18], 0.9 °C. Moreover, in [19], the ΔTm was found to be 0.2 °C.

For `COc1ccc(Cl)cc1NC(=O)Nc1cc(C)nc2ccccc12`, the ΔTm in assay [1] is 2.2 °C; in [2], -0.5 °C; in assay [3] it was 0.6 °C; in assay [4], -0.6 °C; in [5], 2.4 °C; in assay [6] it was 0.2 °C. For the same compound, the ΔTm is 1.4 °C in assay [7]; 2.5 °C in assay [8]; 0.3 °C in assay [9]; 1.9 °C in [10]; -1.1 °C in assay [11]; 1 °C in assay [12]. In addition, the ΔTm in assay [13] stood at 0.6 °C; in assay [14], 1.4 °C; in assay [15] it was 0.6 °C; in [16] it was 0.1 °C.

As to `CN1CCc2[nH]c(=S)c(C#N)c(-c3cccs3)c2C1`, the ΔTm in [1] is 1.3 °C; in assay [2], 1 °C; in assay [3], 1.9 °C; in assay [4], 0 °C; in assay [5], 5.3 °C; in assay [6] it was -0.2 °C. Besides, the ΔTm in [7] was 4.3 °C; in [8], 0.6 °C; in assay [9] it was 1 °C; in assay [10], 0 °C; in assay [11], 1.4 °C; in assay [12], -0.3 °C. Besides, the thermal shift (ΔTm) in assay [13] is 0.3 °C; in assay [14], 5.9 °C; in assay [15], 7.2 °C; in [16] it was 0.5 °C.

In the case of `O=C(Nc1cccc(Nc2cc(Nc3cccc(C(F)(F)F)c3)ncn2)c1)C1CC1`, the ΔTm in assay [1] was 2.6 °C; in assay [2] it was -2 °C; in assay [3] it was -0.4 °C; in [4], -1.5 °C; in [5], 2.4 °C; in assay [6], 1 °C. In addition, the ΔTm in assay [7] was 2.8 °C; in assay [8], 1.5 °C; in [9], 2 °C; in assay [10], -0.3 °C; in [11], 1 °C; in assay [12], 2.3 °C. For the same compound, the ΔTm in assay [13] came out at 3.4 °C; in assay [14], 3.2 °C; in assay [15] it was 0 °C; in assay [16], 1.5 °C; in assay [17], 0.8 °C; in [18] it was 1.4 °C. In addition, the ΔTm in assay [19] is -0.2 °C.

In the case of `CC(C)[C@H](CO)Nc1nc(Nc2cc(N)cc(Cl)c2)c2ncn(C(C)C)c2n1` [AMINOPURVALANOL], the thermal shift (ΔTm) in [1] came out at 0.7 °C; in [2], 1.3 °C; in [3], 4.2 °C; in assay [5] it was 7.5 °C; in assay [6], 0.1 °C; in assay [7], 2.8 °C. The ΔTm in assay [8] was 0.2 °C; in assay [9], 4.8 °C; in assay [10], 0.1 °C; in [11] it was 1.2 °C; in assay [12] it was -0.1 °C; in assay [13], 4.5 °C. Besides, the ΔTm in assay [14] turned out to be 3.5 °C; in [15], 2.7 °C; in assay [16], 0.6 °C.
